From patent US5698522A, “6-position modified decapeptide LHRH antagonists” (Abbott Laboratories, priority 1995, dated 1997) come the findings set out here.

SMILES strings stand for the structures. *1 amine or outer side, *2 acyl side, *3 side chain or, on linkers, in order; H or OH if unused. Where a SMILES comes first, the peptide text is derived from it. Side-chain parts run from the residue outwards. [ ]: non-standard residue; d: D form. The star is where a group is joined. Shikimoyl = O=C(C1=C[C@@H](O)[C@@H](O)[C@H](O)C1)*; X5 = O=C(NCCCN*)C1=C[C@@H](O)[C@@H](O)[C@H](O)C1; dPhe(4-Cl) = N[C@H](Cc1ccc(Cl)cc1)C(=O)O; d2Nal = N[C@H](Cc1ccc2ccccc2c1)C(=O)O; Lys(iPr) = CC(C)NCCCC[C@H](N)C(=O)O; NMeY = CN[C@@H](Cc1ccc(O)cc1)C(=O)O; d3Pal = N[C@H](Cc1cccnc1)C(=O)O; Nicotinoyl = O=C(c1cccnc1)*; dOrn = NCCC[C@@H](N)C(=O)O; 2Furoyl = O=C(c1ccco1)*; CO = O=C([*:1])[*:2]; azaGly = NNC(=O)O; βAla = NCCC(=O)O; Sar = CNCC(=O)O

This test deals with T1, LHRH receptor (Rattus norvegicus, UniProt P30969).
T1 construct: endogenous in cells
T1 sequence (P30969 1-327): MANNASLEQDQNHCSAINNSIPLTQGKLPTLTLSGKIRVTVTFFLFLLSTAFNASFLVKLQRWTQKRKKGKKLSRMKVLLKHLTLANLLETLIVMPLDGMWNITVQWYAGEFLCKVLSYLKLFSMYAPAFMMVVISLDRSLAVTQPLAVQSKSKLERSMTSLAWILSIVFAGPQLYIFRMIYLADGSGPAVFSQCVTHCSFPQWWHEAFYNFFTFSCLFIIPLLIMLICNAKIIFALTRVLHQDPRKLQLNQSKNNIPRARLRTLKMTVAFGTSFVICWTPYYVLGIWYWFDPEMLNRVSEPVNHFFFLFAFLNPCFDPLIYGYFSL
As to the kind of experiment: in vitro LHRH antagonist potency (pA2) against the agonist leuprolide. Type of test: cell-based. Particulars: negative logarithm of the antagonist concentration which shifts the response curve produced by the agonist leuprolide to two-fold higher concentration. A digest of the protocol:
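Functional antagonism against the agonist leuprolide. pA2 is the negative log of antagonist concentration that shifts the leuprolide response curve to twofold higher concentration.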
Broadly, the Kb is the affinity of an antagonist, worked out from how it opposes an agonist. On to `CC(=O)N[C@H](Cc1ccc2ccccc2c1)C(=O)N[C@H](Cc1ccc(Cl)cc1)C(=O)N[C@H](Cc1cccnc1)C(=O)N[C@@H](CO)C(=O)N(C)[C@@H](Cc1ccc(O)cc1)C(=O)N[C@H](CCCCNC(=O)NCCCNC(=O)C1=C[C@@H](O)[C@@H](O)[C@H](O)C1)C(=O)N[C@@H](CC(C)C)C(=O)N[C@@H](CCCNC(=N)N)C(=O)N1CCC[C@H]1C(=O)N[C@H](C)C(N)=O` [Example 42, NAc-D2Nal^1 -D4ClPhe^2 -D3Pal^3 -Ser^4 -NMeTyr^5 -DLys[N-epsilon-(N'-Carbonyl-Diaminopropane-N"-Shikimyl)]^6 -Leu^7 -Arg^8 -Pro^9 -DAla^10 NH2] (Ac-[d2Nal][dPhe(4-Cl)][d3Pal]S[NMeY][dK]([CO-X5])LRP[dA]-NH2), for which the antagonist dissociation constant (Kb) was 0.0257 nM.
The value for `CC(=O)N[C@H](Cc1ccc2ccccc2c1)C(=O)N[C@H](Cc1ccc(Cl)cc1)C(=O)N[C@H](Cc1cccnc1)C(=O)N[C@@H](CO)C(=O)N(C)[C@@H](Cc1ccc(O)cc1)C(=O)N[C@H](CCCCNC(=O)[C@@H](Cc1c[nH]cn1)NC(=O)C1=C[C@@H](O)[C@@H](O)[C@H](O)C1)C(=O)N[C@@H](CC(C)C)C(=O)N[C@@H](CCCNC(=N)N)C(=O)N1CCC[C@H]1C(=O)N[C@H](C)C(N)=O` [Example 48h, NAc-D2Nal^1 -D4ClPhe^2 -D3Pal^3 -Ser^4 -NMeTyr^5 -DLys(N-epsilon-D-His-Shikimyl)^6 -Leu^7 -Arg^8 -Pro^9 -DAla^10 NH2] (Ac-[d2Nal][dPhe(4-Cl)][d3Pal]S[NMeY][dK]([dH-Shikimoyl])LRP[dA]-NH2) was 0.038 nM; that for `CC(=O)N[C@H](Cc1ccc2ccccc2c1)C(=O)N[C@H](Cc1ccc(Cl)cc1)C(=O)N[C@H](Cc1cccnc1)C(=O)N[C@@H](CO)C(=O)N(C)[C@@H](Cc1ccc(O)cc1)C(=O)N[C@H](CCCNC(=O)CNC(=O)c1cccnc1)C(=O)N[C@@H](CC(C)C)C(=O)N[C@@H](CCCNC(=N)N)C(=O)N1CCC[C@H]1C(=O)N[C@H](C)C(N)=O` [Example 49a, NAc-D2Nal^1 -D4ClPhe^2 -D3Pal^3 -Ser^4 -NMeTyr^5 -DOrn(N-epsilon-Gly-Nicotinyl)^6 -Leu^7 -Arg^8 -Pro^9 -DAla^10 NH2] (Ac-[d2Nal][dPhe(4-Cl)][d3Pal]S[NMeY][dOrn]([Gly-Nicotinoyl])LRP[dA]-NH2) was 0.0155 nM; that for `CC(=O)N[C@H](Cc1ccc2ccccc2c1)C(=O)N[C@H](Cc1ccc(Cl)cc1)C(=O)N[C@H](Cc1cccnc1)C(=O)N[C@@H](CO)C(=O)N(C)[C@@H](Cc1ccc(O)cc1)C(=O)N[C@H](CCCCNC(=O)CCNC(=O)CNC(=O)c1ccco1)C(=O)N[C@@H](CC(C)C)C(=O)N[C@@H](CCCCNC(C)C)C(=O)N1CCC[C@H]1C(=O)N[C@H](C)C(N)=O` [Example 57c, NAc-D2Nal^1 -D4ClPhe^2 -D3Pal^3 -Ser^4 -NMeTyr^5 -DLys(N-epsilon-beta-alanyl-glycyl-furoyl)^6 -Leu^7 -Lys(Isp)^8 -Pro^9 -DAla^10 NH2] (Ac-[d2Nal][dPhe(4-Cl)][d3Pal]S[NMeY][dK]([βAla-Gly-2Furoyl])L[Lys(iPr)]P[dA]-NH2) was 0.0186 nM.
The value for `CC(=O)N[C@H](Cc1ccc2ccccc2c1)C(=O)N[C@H](Cc1ccc(Cl)cc1)C(=O)N[C@H](Cc1cccnc1)C(=O)N[C@@H](CO)C(=O)N(C)[C@@H](Cc1ccc(O)cc1)C(=O)N[C@H](CCCCNC(=O)NNC(=O)c1ccco1)C(=O)N[C@@H](CC(C)C)C(=O)N[C@@H](CCCCNC(C)C)C(=O)N1CCC[C@H]1C(=O)N(C)CC(N)=O` [Example 59, NAc-D2Nal^1 -D4ClPhe^2 -D3Pal^3 -Ser^4 -NMeTyr^5 -DLys(N-epsilon-Azagly-Fur-2-oyl)^6 -Leu^7 -Lys(N-epsilon-Isopropyl)^8 -Pro^9 -Sar^10 NH2] (Ac-[d2Nal][dPhe(4-Cl)][d3Pal]S[NMeY][dK]([azaGly-2Furoyl])L[Lys(iPr)]P[Sar]-NH2) was 0.0363 nM.
